Counter-ions that a name gives are not always drawn. Bridge positions count the residues as written; N and C are the ends. Square brackets hold non-standard residues; d marks the D form. Peptide text beside a SMILES is read from it. ξ: configuration not given here. Thr(3ξ) = CC(O)[C@H](N)C(=O)O; Dab = NCC[C@H](N)C(=O)O; Inp = O=C(O)C1CCNCC1; Ahx = NCCCCCC(=O)O
Key:
Assay type in all cases: cell-based
Acinetobacter baumannii [1] = assay: MIC, compound in combination with a second agent (broth microdilution); conditions: 1:1 (wt:wt) combination with Rifampicin
How it was run: (§1)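 MIC values express combined concentration of test compound plus partner agent such as rifampicin, mixed at equal mass (1:1 w/w, salt-form weight). Direct colony suspensions at 0.5 McFarland, up to four strains per species, tested in duplicate; >2-fold disagreement invalid, otherwise lower value or mode of repeats reported.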

Klebsiella pneumoniae [2] = assay: as above; conditions: 1:1 (wt:wt) combination with Rifampicin
How it was run: as §1

Escherichia coli [3] = assay: as above; conditions: 1:1 (wt:wt) combination with Rifampicin
How it was run: as §1

Pseudomonas aeruginosa [4] = assay: as above; conditions: 1:1 (wt:wt) combination with Rifampicin
How it was run: as §1

Acinetobacter baumannii [5] = assay: MIC, sole activity (no second agent); conditions: in the absence of Rifampicin
How it was run: (§2)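 Up to four strains per species were tested in cation-adjusted Mueller-Hinton broth, with inoculum made by direct colony suspension from 18-24 hour Mueller-Hinton agar plates, adjusted to 0.5 McFarland. Duplicates differing by under 2-fold gave the lower value; greater spread voided the run. Values are relative to Polymyxin B.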

Klebsiella pneumoniae [6] = assay: MIC, sole activity (no second agent); conditions: in the absence of Rifampicin
How it was run: as §2

Escherichia coli [7] = assay: MIC, sole activity (no second agent); conditions: in the absence of Rifampicin
How it was run: as §2

Pseudomonas aeruginosa [8] = assay: MIC, sole activity (no second agent); conditions: in the absence of Rifampicin
How it was run: as §2

[9] = MIC = total drug concentration, strain ATCC BAA-747
[10] = MIC = total drug concentration, strain CCUG57249
[11] = MIC = total drug concentration, strain NCTC 13423
[12] = MIC = total drug concentration, strain NCTC 13424
[13] = MIC = total drug concentration, strain ATCC-BAA-2146
[14] = MIC = total drug concentration, strain CCUG-59348
[15] = MIC = total drug concentration, strain NCTC 13438
[16] = MIC = total drug concentration, strain ATCC25922
[17] = MIC = total drug concentration, strain NCTC9001
[18] = MIC = total drug concentration, strain ATCC CRM-9027
[19] = MIC = total drug concentration, strain ATCC-47
[20] = MIC = total drug concentration, strain CCUG 59626
[21] = MIC is total drug concentration

CC(C)C[C@@H]1NC(=O)[C@@H](Cc2ccccc2)NC(=O)[C@H](CCN)NC(=O)[C@@H](NC(=O)[C@H](CCN)NC(=O)[C@@H](NC(=O)CCCCCN)C(C)O)CCNC(=O)[C@H](C(C)O)NC(=O)[C@H](CCN)NC(=O)[C@H](CCN)NC1=O (some centres unmarked) [Example 2, 6-Aminohexanoyl polymyxin B nonapeptide] (H-[Ahx][Thr(3ξ)][Dab][Dab][Dab][dF]L[Dab][Dab][Thr(3ξ)]; lactam 4-C) was tested. Which “MIC A. baumannii ATCC BAA-747” value (Acinetobacter baumannii [1]; [9]) did it give?
Its value is at most 0.06 micrograms/mL.

And the “MIC A. baumannii CCUG57249” value (Acinetobacter baumannii [1]; [10])?
Its value is at most 0.06 micrograms/mL.

And the “MIC A. baumannii NCTC 13423” value (Acinetobacter baumannii [1]; [11])?
Its value is at most 0.06 micrograms/mL.

And the “MIC A. baumannii NCTC 13424” value (Acinetobacter baumannii [1]; [12])?
Its value is at most 0.06 micrograms/mL.

What about the “MIC K. pneumoniae ATCC-BAA-2146” value (Klebsiella pneumoniae [2]; [13]) of the same compound?
Its value is 0.5 micrograms/mL.

And the “MIC K. pneumoniae CCUG-59348” value (Klebsiella pneumoniae [2]; [14])?
The value was 4 micrograms/mL.

What about the “MIC K. pneumoniae NCTC 13438” value (Klebsiella pneumoniae [2]; [15]) of the same compound?
Its value is 0.5 micrograms/mL.

What about the “MIC E. coli ATCC25922” value (Escherichia coli [3]; [16]) of the same compound?
Its value is 0.125 micrograms/mL.

What about the “MIC E. coli NCTC9001” value (Escherichia coli [3]; [17]) of the same compound?
The value was 0.5 micrograms/mL.

What about the “MIC P. aeruginosa ATCC CRM-9027” value (Pseudomonas aeruginosa [4]; [18]) of the same compound?
Its value is 0.25 micrograms/mL.

What about the “MIC P. aeruginosa ATCC-47” value (Pseudomonas aeruginosa [4]; [19]) of the same compound?
Its value is 0.25 micrograms/mL.

What about the “MIC P. aeruginosa CCUG 59626” value (Pseudomonas aeruginosa [4]; [20]) of the same compound?
The value was 0.125 micrograms/mL.

What about the “MIC A. baumannii ATCCBAA-747” value (Acinetobacter baumannii [5]; strain ATCCBAA-747) of the same compound?
The value was 8 micrograms/mL.

What about the “MIC A. baumannii NCTC 13423” value (Acinetobacter baumannii [5]; strain NCTC13423) of the same compound?
Its value is 0.5 micrograms/mL.

And the “MIC K. pneumoniae ATCC 4352” value (Klebsiella pneumoniae [6]; strain ATCC 4352)?
Its value is 0.5 micrograms/mL.

And the “MIC E. coli ATCC25922” value (Escherichia coli [7]; strain ATCC25922)?
Its value is 2 micrograms/mL.

What about the “MIC E. coli NCTC9001” value (Escherichia coli [7]; strain NCTC9001) of the same compound?
The value was 8 micrograms/mL.

What about the “MIC P. aeruginosa ATCC 27853” value (Pseudomonas aeruginosa [8]; strain ATCC27853) of the same compound?
Its value is 0.5 micrograms/mL.

And the “MIC P. aeruginosa ATCCCRM-9027” value (Pseudomonas aeruginosa [8]; strain ATCCCRM-9027)?
Its value is 0.25 micrograms/mL.

Which results are given for CC(C)C[C@@H]1NC(=O)[C@@H](Cc2ccccc2)NC(=O)[C@H](CCN)NC(=O)[C@@H](NC(=O)[C@H](CCN)NC(=O)[C@@H](NC(=O)C2CCNCC2)C(C)O)CCNC(=O)[C@H](C(C)O)NC(=O)[C@H](CCN)NC(=O)[C@H](CCN)NC1=O (some centres unmarked) [Example 29, 4-piperidinecarbonyl polymyxin B nonapeptide, trifluoroacetate] (H-[Inp][Thr(3ξ)][Dab][Dab][Dab][dF]L[Dab][Dab][Thr(3ξ)]; lactam 4-C)?
MIC A. baumannii ATCC BAA-747 (Acinetobacter baumannii [1]; [9]): ≤0.06 micrograms/mL; MIC A. baumannii CCUG57249 (Acinetobacter baumannii [1]; [10]): 0.125 micrograms/mL; MIC A. baumannii NCTC 13423 (Acinetobacter baumannii [1]; [11]): ≤0.06 micrograms/mL; MIC A. baumannii NCTC 13424 (Acinetobacter baumannii [1]; [12]): 0.125 micrograms/mL; MIC A. baumannii ATCC BAA-747 (Acinetobacter baumannii [1]; [21]): ≤0.06 micrograms/mL; MIC A. baumannii CCUG57249 (Acinetobacter baumannii [1]; [21]): 0.125 micrograms/mL; MIC A. baumannii NCTC 13423 (Acinetobacter baumannii [1]; [21]): ≤0.06 micrograms/mL; MIC A. baumannii NCTC 13424 (Acinetobacter baumannii [1]; [21]): 0.125 micrograms/mL; MIC K. pneumoniae ATCC 4352 (Klebsiella pneumoniae [2]; MIC = total drug concentration, strain ATCC 4352): ≤0.06 micrograms/mL; MIC K. pneumoniae ATCC-BAA-2146 (Klebsiella pneumoniae [2]; [13]): 0.25 micrograms/mL; MIC K. pneumoniae CCUG-59348 (Klebsiella pneumoniae [2]; [14]): 4 micrograms/mL; MIC K. pneumoniae NCTC 13438 (Klebsiella pneumoniae [2]; [15]): 0.5 micrograms/mL; MIC K. pneumoniae ATCC-BAA-2146 (Klebsiella pneumoniae [2]; [21]): 0.25 micrograms/mL; MIC K. pneumoniae CCUG-59348 (Klebsiella pneumoniae [2]; [21]): 4 micrograms/mL; MIC K. pneumoniae NCTC 13438 (Klebsiella pneumoniae [2]; [21]): 0.5 micrograms/mL; MIC E. coli ATCC25922 (Escherichia coli [3]; [16]): 0.125 micrograms/mL; MIC E. coli NCTC9001 (Escherichia coli [3]; [17]): 0.25 micrograms/mL; MIC E. coli ATCC25922 (Escherichia coli [3]; [21]): 0.125 micrograms/mL; MIC E. coli NCTC9001 (Escherichia coli [3]; [21]): 0.25 micrograms/mL; MIC P. aeruginosa ATCC 27853 (Pseudomonas aeruginosa [4]; MIC = total drug concentration, strain ATCC 27853): 0.125 micrograms/mL; MIC P. aeruginosa ATCC CRM-9027 (Pseudomonas aeruginosa [4]; [18]): 0.125 micrograms/mL; MIC P. aeruginosa ATCC-47 (Pseudomonas aeruginosa [4]; [19]): 0.25 micrograms/mL; MIC P. aeruginosa CCUG 59626 (Pseudomonas aeruginosa [4]; [20]): 0.125 micrograms/mL; MIC P. aeruginosa ATCC 27853 (Pseudomonas aeruginosa [4]; [21]): 0.125 micrograms/mL; MIC P. aeruginosa ATCC CRM-9027 (Pseudomonas aeruginosa [4]; [21]): 0.125 micrograms/mL; MIC P. aeruginosa ATCC-47 (Pseudomonas aeruginosa [4]; [21]): 0.25 micrograms/mL; MIC P. aeruginosa CCUG 59626 (Pseudomonas aeruginosa [4]; [21]): 0.125 micrograms/mL; MIC A. baumannii ATCC13424 (Acinetobacter baumannii [5]; strain ATCC13424): 2 micrograms/mL; MIC K. pneumoniae ATCC-BAA2146 (Klebsiella pneumoniae [6]; strain ATCC-BAA2146): >32 micrograms/mL; MIC K. pneumoniae CCUG-59348 (Klebsiella pneumoniae [6]; strain CCUG-59348): >32 micrograms/mL; MIC P. aeruginosa CCUG 59626 (Pseudomonas aeruginosa [8]; strain CCUG 59626): 0.125 micrograms/mL
